Experimental data as given in patent US8669292B2, “Therapeutic formulation” (Orion Therapeutics, LLC, priority 2005, dated 2014).
Values after ≈ are worked out from the molar mass of the structure shown. Like-named read-outs stand apart in the source and are kept apart here.

Tests used:
[1] = test system: HCT-116 human colon cancer cells; assay: IC50 assay (concentration-cell number study); assay type: cell-based; settings: HCT-116, 120 h exposure
Experimental: Concentration-cell number studies (IC50 assay) were carried out utilizing 12 separate compositions (numbered 1-12 below) against 13 different cancer cell lines (see Table 6). […] On day 3, cells are exposed to different concentrations of the drug. Flasks are incubated for 120 h (5 d) in a 5% CO2 incubator at 37° C. and the cells harvested with trypsin, washed once with Hanks Balanced Salt Solution (HBSS) and re-suspended in HBSS containing 0.08% Trypan Blue. Both viable and dead cells are counted using a hemocytometer. Viable cell numbers are normalized to an untreated control and plotted as a function of drug concentration. The IC50 value is determined using Prism 4.0.

[2] = SORAC (Brunswick Test # A106); assay type: biochemical; settings: Cantron oral liquid scores converted from unitsSODeq/L to unitsSODeq/g
Experimental: Peroxyl radical scores are measured in the ORAC test (Oxygen Radical Absorption Capacity). Hydroxyl Radicals are tested in the HORAC test (Hydroxyl Radical Absorption Capacity). Peroxynitrite Radicals are tested in the NORAC test (Peroxynitrite Radical Absorption Capacity). Superoxide Radicals are measured in the SOD test (Superoxide Radical Absorption Capacity). Applicant's compounds and compositions were tested by the SORAC test (Brunswick test #106), which measures the activity of a given antioxidant against Superoxide radicals. The tests were conducted based on the method of Zhao et al (1999) Journal of Agricultural and Food Chemistry, (1999), 47: 2537-2543. The calibration standard was SOD and was expressed as a unit SOD equivalent per liter (unitsSODeq/L) for liquid formulations and unit SOD equivalent per gram (unitsSODeq/g) for dry powders.

[3] = test system: 13 different cancer cell lines; assay: IC50 assays, average or range over all cell lines; assay type: cell-based; settings: average of 13 cell lines
Experimental: (§2) These cells are grown in 5 ml culture medium (RPMI-1640+15% Bovine Calf serum containing 1% penicillin-streptomycin, and 1% Glutamine) at 37° C. and 5% CO2 at a starting concentration of 5×10^4 cells/T25 flask. On day 3, cells are exposed to different concentrations of the drug. Flasks are incubated for 120 h (5 d) in a 5% CO2 incubator at 37° C. and the cells harvested with trypsin, washed once with Hanks Balanced Salt Solution (HBSS) and re-suspended in HBSS containing 0.08% Trypan Blue. Both viable and dead cells are counted using a hemocytometer. Viable cell numbers are normalized to an untreated control and plotted as a function of drug concentration. The IC50 value is determined using Prism 4.0.
(§3) Cell Lines utilized in IC50 Assays: HCT-116 human colon cancer cells, H125 Lung Cancer, MCF-7, Breast Cancer, MDA-235 Breast Cancer, LNCaP Prostate Cancer, OVAR-5 Ovarian Cancer, U251N Brain Cancer Sarcoma 180, Panc 01Pancreatic Cancer, CCRF-CEM Leukemia, HEP-G2 Liver Cancer, L1210 Leukemia, Colon 38 Colon Cancer.

U251N Brain Cancer = assay: IC50 assay (concentration-cell number study); assay type: cell-based; settings: 120 h exposure
Experimental: (§4) Concentration-cell number studies (IC50 assay) were carried out utilizing 12 separate compositions (numbered 1-12 below) against 13 different cancer cell lines (see Table 6). These cells are grown in 5 ml culture medium (RPMI-1640+15% Bovine Calf serum containing 1% penicillin-streptomycin, and 1% Glutamine) at 37° C. and 5% CO2 at a starting concentration of 5×10^4 cells/T25 flask. On day 3, cells are exposed to different concentrations of the drug. Flasks are incubated for 120 h (5 d) in a 5% CO2 incubator at 37° C. and the cells harvested with trypsin, washed once with Hanks Balanced Salt Solution (HBSS) and re-suspended in HBSS containing 0.08% Trypan Blue. Both viable and dead cells are counted using a hemocytometer. Viable cell numbers are normalized to an untreated control and plotted as a function of drug concentration. The IC50 value is determined using Prism 4.0.

CCRF-CEM Leukemia = assay: IC50 assay (concentration-cell number study); assay type: cell-based; settings: 120 h exposure
Experimental: as §4

MCF-7 Breast Cancer = assay: IC50 assay (concentration-cell number study); assay type: cell-based; settings: 120 h exposure
Experimental: as §4

Colon 38 Colon Cancer = assay: IC50 assay (concentration-cell number study); assay type: cell-based; settings: 120 h exposure
Experimental: as §2, §3

[4] = ORAC lipo (Brunswick Test # A102); assay type: biochemical; settings: Cantron oral liquid scores converted from TE/L to TE/g
Experimental: (§1) Peroxyl radical scores are measured in the ORAC test (Oxygen Radical Absorption Capacity). Hydroxyl Radicals are tested in the HORAC test (Hydroxyl Radical Absorption Capacity). Peroxynitrite Radicals are tested in the NORAC test (Peroxynitrite Radical Absorption Capacity). Superoxide Radicals are measured in the SOD test (Superoxide Radical Absorption Capacity). The ORAC test measures the antioxidant activity against peroxyl radicals by determining how many peroxyl free radicals can be absorbed by a given antioxidant as compared to the vitamin E analog-Trolox. The result is expressed as micromoles of Trolox equivalent per liter (TE/L) for liquid formulations and Trolox equivalent per gram (TE/g) for dry powders. Brunswick tested the Applicant's compounds for antioxidant activity against both hydrophilic and lipophilic peroxyl radicals as expressed in the ORAC total (see table 7).

HEP-G2 Liver Cancer = assay: IC50 assay (concentration-cell number study); assay type: cell-based; settings: 120 h exposure
Experimental: as §4

[5] = ORAC total (Brunswick Test # A103); assay type: biochemical; settings: Cantron oral liquid scores converted from TE/L to TE/g
Experimental: as §1

MDA-235 Breast Cancer = assay: IC50 assay (concentration-cell number study); assay type: cell-based; settings: 120 h exposure
Experimental: as §4

[6] = HORAC (Brunswick Test # A104); assay type: biochemical; settings: Cantron oral liquid scores converted from CAE/L to CAE/g
Experimental: Peroxyl radical scores are measured in the ORAC test (Oxygen Radical Absorption Capacity). Hydroxyl Radicals are tested in the HORAC test (Hydroxyl Radical Absorption Capacity). Peroxynitrite Radicals are tested in the NORAC test (Peroxynitrite Radical Absorption Capacity). Superoxide Radicals are measured in the SOD test (Superoxide Radical Absorption Capacity). […] The result is expressed as micromoles of caffeic acid equivalent per liter (CAE/L) for liquid formulations and caffeic acid equivalent per gram (CAE/g) for dry powders.

[7] = NORAC (Brunswick Test # A105); assay type: biochemical; settings: Cantron oral liquid scores converted from TE/L to TE/g
Experimental: Peroxyl radical scores are measured in the ORAC test (Oxygen Radical Absorption Capacity). Hydroxyl Radicals are tested in the HORAC test (Hydroxyl Radical Absorption Capacity). Peroxynitrite Radicals are tested in the NORAC test (Peroxynitrite Radical Absorption Capacity). Superoxide Radicals are measured in the SOD test (Superoxide Radical Absorption Capacity). Applicant's compounds and compositions were tested by the NORAC test (Brunswick test # A 105), which measures the activity of a given antioxidant against peroxynitrite radicals. NORAC tests were based on the method of Chung H. et al (2001) Journal Agricultural of Food Chemistry, 49: 3614-3621. Scores are expressed in micromoles of trolox equivalent per liter (TE/L) for liquid formulations and Trolox equivalent per gram (TE/g) for dry powders.

Sarcoma 180 = assay: IC50 assay (concentration-cell number study); assay type: cell-based; settings: 120 h exposure
Experimental: as §4

LNCaP Prostate Cancer = assay: IC50 assay (concentration-cell number study); assay type: cell-based; settings: 120 h exposure
Experimental: as §4

H125 Lung Cancer = assay: IC50 assay (concentration-cell number study); assay type: cell-based; settings: 120 h exposure
Experimental: as §2, §3

[8] = test system: Panc 01 Pancreatic Cancer; assay: IC50 assay (concentration-cell number study); assay type: cell-based; settings: 120 h exposure
Experimental: as §4

L1210 Leukemia = assay: IC50 assay (concentration-cell number study); assay type: cell-based; settings: 120 h exposure
Experimental: as §4

[9] = ORAC hydro (Brunswick Test # A101); assay type: biochemical; settings: Cantron oral liquid scores converted from TE/L to TE/g
Experimental: as §1

OVAR-5 Ovarian Cancer = assay: IC50 assay (concentration-cell number study); assay type: cell-based; settings: 120 h exposure
Experimental: as §4

[10] = Homo sapiens, HCT-116, 120 h, read-out: IC50

Compound: O=C1O[C@H]([C@@H](O)CO)C(O)=C1O [Vitamin C, reference compound]
- IC50 [1, 10]: > 100 µg/mL

Compound: O=c1[nH]cc(F)c(=O)[nH]1 [5-Fluorouracil, reference compound]
- IC50 [1, 10]: 0.15 µg/mL (≈ 1.15 µM)

Compound: COc1cccc2c1C(=O)c1c(O)c3c(c(O)c1C2=O)C[C@@](O)(C(=O)CO)C[C@@H]3O[C@H]1C[C@H](N)[C@H](O)[C@H](C)O1 [Adriamycin, reference compound]
- IC50 [1, 10]: 0.03 µg/mL (≈ 0.0552 µM)

Compound: N.N.[Cl][Pt][Cl] [cis-Platinum, reference compound]
- IC50 [1]: 0.10 µg/mL

Compound: CC[C@]1(O)C[C@H]2CN(CCc3c([nH]c4ccccc34)[C@@](C(=O)OC)(c3cc4c(cc3OC)N(C=O)[C@H]3[C@@](O)(C(=O)OC)[C@H](OC(C)=O)[C@]5(CC)C=CCN6CC[C@]43[C@@H]65)C2)C1 [Vincristine, reference compound]
- IC50 [1, 10]: 0.005 µg/mL (≈ 0.00606 µM)

Compound: O=C1C(O)=C(O)C(=O)C(O)=C1O [Composition 4, tetrahydroxy-1,4-quinone]
- SOD SCORE [2]: 145,000 unitsSODeq/g
- IC50 AVG. [3]: 25 µg/mL (≈ 145 µM)
- IC50 (U251N Brain Cancer): 8.0 µg/mL (≈ 46.5 µM)
- IC50 (CCRF-CEM Leukemia): 7.0 µg/mL (≈ 40.7 µM)
- IC50 (MCF-7 Breast Cancer): 5.9 µg/mL (≈ 34.3 µM)
- IC50 (Colon 38 Colon Cancer): 19 µg/mL (≈ 110 µM)
- ORAC lipo SCORE [4]: 1 micromoles TE/g
- IC50 (HEP-G2 Liver Cancer): 8.5 µg/mL (≈ 49.4 µM)
- TOTAL ORAC SCORE [5]: 1,508 micromoles TE/g
- IC50 [1]: 17.0 µg/mL (≈ 98.8 µM)
- IC50 ([1]; listed as 4): 17 µg/mL (≈ 98.8 µM)
- IC50 (MDA-235 Breast Cancer): 5.8 µg/mL (≈ 33.7 µM)
- HORAC SCORE [6]: 129 micromoles CAE/g
- NORAC SCORE [7]: 438 micromoles TE/g
- IC50 (Sarcoma 180): 51 µg/mL (≈ 296 µM)
- IC50 (LNCaP Prostate Cancer): 54 µg/mL (≈ 314 µM)
- IC50 (H125 Lung Cancer): 53 µg/mL (≈ 308 µM)
- IC50 [8]: 24 µg/mL (≈ 139 µM)
- IC50 (L1210 Leukemia): 49 µg/mL (≈ 285 µM)
- ORAC hydro SCORE [9]: 1,507 micromoles TE/g
- IC50 (OVAR-5 Ovarian Cancer): 28 µg/mL (≈ 163 µM)

Compound: Vitamin E [reference compound]
- IC50 [1]: >100 µg/mL
